Assay results published in patent publication US12129246B1, “Hydroquinazoline derivatives for the treatment of a disease or disorder” (Novartis AG, priority 2023, dated 2024).
Like-named read-outs stand apart in the source and are kept apart here.

How the values were obtained:
human NPR1 = target: T1, human NPR1 (Homo sapiens, UniProt P16066); assay: Cellular cGMP production assay, human NPR1 expressing CHO-K1 cells (CisBio HTRF); format: cell-based; conditions: for AC50: cGMP production, 30 min at 37° C., 12-point dose-response from 30 μM; for Human NPR1 Amax (% of ANP): maximum cGMP production as percentage of the maximum cGMP produced with ANP
T1 construct: host or cells: CHO-K1
T1 sequence (P16066 33-1061): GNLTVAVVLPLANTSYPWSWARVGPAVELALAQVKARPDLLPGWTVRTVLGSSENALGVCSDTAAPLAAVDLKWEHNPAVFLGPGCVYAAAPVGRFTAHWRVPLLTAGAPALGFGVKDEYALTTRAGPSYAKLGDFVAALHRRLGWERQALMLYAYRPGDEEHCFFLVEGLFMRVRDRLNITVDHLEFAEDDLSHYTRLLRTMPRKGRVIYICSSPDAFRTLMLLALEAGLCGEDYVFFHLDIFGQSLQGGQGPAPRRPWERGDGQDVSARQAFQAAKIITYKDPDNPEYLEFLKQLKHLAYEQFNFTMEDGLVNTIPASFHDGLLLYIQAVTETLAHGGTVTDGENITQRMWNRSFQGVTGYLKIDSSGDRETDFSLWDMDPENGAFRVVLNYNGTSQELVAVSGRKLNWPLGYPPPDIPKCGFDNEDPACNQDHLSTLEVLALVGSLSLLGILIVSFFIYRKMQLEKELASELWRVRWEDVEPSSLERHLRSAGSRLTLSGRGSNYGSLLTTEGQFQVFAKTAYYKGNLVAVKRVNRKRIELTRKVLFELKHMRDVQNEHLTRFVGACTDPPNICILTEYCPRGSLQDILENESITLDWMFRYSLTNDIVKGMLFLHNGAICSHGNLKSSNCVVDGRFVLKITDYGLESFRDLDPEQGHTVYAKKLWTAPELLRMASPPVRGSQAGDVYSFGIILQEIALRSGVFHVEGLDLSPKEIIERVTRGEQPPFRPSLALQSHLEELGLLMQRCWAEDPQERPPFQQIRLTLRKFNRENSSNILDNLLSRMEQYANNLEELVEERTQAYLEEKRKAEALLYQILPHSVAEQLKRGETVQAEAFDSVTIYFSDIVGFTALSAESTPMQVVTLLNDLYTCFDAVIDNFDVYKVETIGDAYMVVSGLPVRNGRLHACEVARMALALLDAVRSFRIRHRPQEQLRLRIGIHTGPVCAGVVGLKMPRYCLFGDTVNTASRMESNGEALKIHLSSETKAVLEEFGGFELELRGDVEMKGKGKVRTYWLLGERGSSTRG
Summary of the method: (§1)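 Read-out was HTRF (excitation 317 nm, emission 665 nm), with cGMP quantified as Delta F against a calibrator standard curve. Beforehand, cells were exposed for 30 min at 37 °C to compound (30 μM top, twelve 3-fold steps) in IBMX-containing PBS/BSA buffer, then lysed.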

monkey NPR1 = monkey NPR1 (Macaca fascicularis, UniProt A0A7N9DBT9); assay: Cellular cGMP production assay, monkey NPR1 expressing CHO-K1 cells (CisBio HTRF); format: cell-based; conditions: for Monkey NPR1 Amax (% of ANP): maximum cGMP production as percentage of the maximum cGMP produced with ANP
Summary of the method: as §1

[1] = cGMP production, monkey NPR1 CHO-K1 cells, 30 min at 37° C., 12-point dose-response from 30 μM, read-out: Monkey NPR1 AC50

monkey NPR1, sequence (A0A7N9DBT9 entry or part of it): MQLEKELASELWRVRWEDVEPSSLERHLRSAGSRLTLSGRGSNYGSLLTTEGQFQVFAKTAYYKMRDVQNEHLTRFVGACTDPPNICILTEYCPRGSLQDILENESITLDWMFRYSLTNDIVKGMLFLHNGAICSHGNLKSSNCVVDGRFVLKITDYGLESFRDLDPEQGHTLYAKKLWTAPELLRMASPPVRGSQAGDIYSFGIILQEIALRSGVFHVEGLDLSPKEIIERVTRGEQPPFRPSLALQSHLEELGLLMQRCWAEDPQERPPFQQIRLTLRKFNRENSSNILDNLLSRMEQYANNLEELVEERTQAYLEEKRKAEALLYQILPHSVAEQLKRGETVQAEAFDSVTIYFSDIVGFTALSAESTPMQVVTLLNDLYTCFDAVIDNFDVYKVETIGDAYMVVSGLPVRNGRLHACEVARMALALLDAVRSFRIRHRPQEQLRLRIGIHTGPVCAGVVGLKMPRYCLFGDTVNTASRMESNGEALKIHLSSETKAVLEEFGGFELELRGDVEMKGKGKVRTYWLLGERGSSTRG

Structure (SMILES)	AC50 (human NPR1) [nM]	Human NPR1 Amax (% of ANP) (human NPR1)	AC50 (monkey NPR1; [1]) [nM]	Monkey NPR1 Amax (% of ANP) (monkey NPR1; monkey NPR1 CHO-K1 cells)	AC50 (monkey NPR1) [nM]
CC[C@@H](Nc1nc2c(c(N[C@@H](CN3CCC[C@H](C)C3)c3scnc3C)n1)C[C@H](c1ccccc1)CC2)[C@H]1CC[C@H](C(=O)O)CC1 [Compound 73, (1R,4r)-4-((R)-1-(((R)-4-(((S)-2-((S)-3-methylpiperidin-1-yl)-1-(4-methylthiazol-5-yl)ethyl)amino)-6-phenyl-5,6,7,8-tetrahydroquinazolin-2-yl)amino)propyl)cyclohexane-1-carboxylic acid]	245	94.290 % of ANP	172	99.527 % of ANP	–
CC[C@@H](N(C)c1nc2c(c(N[C@H](CN3CCCCCC3)c3cnn(C)c3)n1)C[C@H](c1cccc(F)c1)CC2)C12CC(C(=O)O)(C1)C2 [Compound 4, 3-((R)-1-(((R)-4-(((S)-2-(azepan-1-yl)-1-(1-methyl-1H-pyrazol-4-yl)ethyl)amino)-6-(3-fluorophenyl)-5,6,7,8-tetrahydroquinazolin-2-yl)(methyl)amino)propyl)bicyclo[1.1.1]pentane-1-carboxylic acid]	72	99.041 % of ANP	70	101.838 % of ANP	–
CC[C@@H](Nc1nc2c(c(N[C@@H](CN3C4CCCC3CC4)c3ccccc3)n1)C[C@H](c1ccccc1)CC2)[C@H]1CC[C@H](C(=O)O)CC1 [Compound 49, (1R,4r)-4-((1R)-1-(((6R)-4-(((1R)-2-(8-azabicyclo[3.2.1]octan-8-yl)-1-phenylethyl)amino)-6-phenyl-5,6,7,8-tetrahydroquinazolin-2-yl)amino)propyl)cyclohexane-1-carboxylic acid]	185	104.186 % of ANP	–	106.033 % of ANP	138
CC[C@H]([C@H]1CC[C@H](C(=O)O)CC1)N(C)c1nc2c(c(N[C@@H](CN3CCCC(C)(F)C3)c3cnn(C)c3)n1)C[C@H](c1ccccc1)CC2 (stereo partly drawn) [Compound 144, (1R,4r)-4-((1R)-1-(((6R)-4-(((1R)-2-(3-fluoro-3-methylpiperidin-1-yl)-1-(1-methyl-1H-pyrazol-4-yl)ethyl)amino)-6-phenyl-5,6,7,8-tetrahydroquinazolin-2-yl)(methyl)amino)propyl)cyclohexane-1-carboxylic acid]	985	114.314 % of ANP	873	152.392 % of ANP	–
CC[C@@H](Nc1nc2c(c(N[C@@H](CN3CCC(OC)CC3)c3cnn(C)c3)n1)C[C@H](c1ccccc1)CC2)[C@H]1CC[C@H](C(=O)O)CC1 [Compound 151, (1R,4r)-4-((R)-1-(((R)-4-(((R)-2-(4-methoxypiperidin-1-yl)-1-(1-methyl-1H-pyrazol-4-yl)ethyl)amino)-6-phenyl-5,6,7,8-tetrahydroquinazolin-2-yl)amino)propyl)cyclohexane-1-carboxylic acid]	1180	88.350 % of ANP	1330	96.950 % of ANP	–
C[C@@H](Nc1nc2c(c(N[C@@H](CN3CCCC3)c3ccccc3)n1)C[C@H](c1ccccc1)CC2)c1ccc(C(=O)O)cc1 [Compound 159, 4-((R)-1-(((R)-6-phenyl-4-(((R)-1-phenyl-2-(pyrrolidin-1-yl)ethyl)amino)-5,6,7,8-tetrahydroquinazolin-2-yl)amino)ethyl)benzoic acid]	1580	92.446 % of ANP	503	98.468 % of ANP	–
CC[C@H]([C@H]1CC[C@H](C(=O)O)CC1)N(C)c1nc2c(c(N[C@@H](CN3C4CCCC3CC4)c3cnc(C)s3)n1)C[C@H](c1cccc(F)c1)CC2 [Compound 81, (1R,4r)-4-((1R)-1-(((6R)-4-(((1S)-2-(8-azabicyclo[3.2.1]octan-8-yl)-1-(2-methylthiazol-5-yl)ethyl)amino)-6-(3-fluorophenyl)-5,6,7,8-tetrahydroquinazolin-2-yl)(methyl)amino)propyl)cyclohexane-1-carboxylic acid]	271	101.636 % of ANP	–	100.863 % of ANP	175
